Results as given in ChEMBL document CHEMBL5143608, “Peptide-based long-acting co-agonists of GLP-1 and cholecystokinin 1 receptors as novel anti-diabesity agents” (Eur J Med Chem, 2022).
Calls of active or inactive are those of the source. The rule behind the calls is not given here. *1 amine or outer side, *2 acyl side, *3 side chain or, on linkers, in order; H or OH if unused. Where a SMILES comes first, the peptide text is derived from it. Side-chain parts run from the residue outwards. [ ]: non-standard residue; d: D form. The star is where a group is joined. γGlu = O=C(O)[C@H](CCC(=O)[*:2])N[*:1]; Palmitoyl = CCCCCCCCCCCCCCCC(=O)*; Aib = CC(C)(N)C(=O)O

Legend:
Mus musculus [1] = assay: Anti-diabesity activity against db/db mouse assessed as reduction in fasting blood glucose level at 25 nmol/kg, sc administered every 2 days for 12 weeks; assay type: functional, organism-based
Mus musculus [2] = assay: Anti-diabesity activity against db/db mouse assessed as reduction in HbA1c level at 25 nmol/kg, sc administered every 2 days and measured on day 43; assay type: functional, organism-based; conditions: time 43.0 day
Mus musculus [3] = assay: Anti-diabesity activity against db/db mouse assessed as improvement in glucose tolerance at 25 nmol/kg, sc administered every 2 days for 3 weeks by OGTT; assay type: functional, organism-based; conditions: time 21.0 day
Mus musculus [4] = assay: Anti-diabesity activity against db/db mouse assessed as improvement in glucose tolerance at 25 nmol/kg, sc administered every 2 days for 12 weeks by OGTT; assay type: functional, organism-based
Mus musculus [5] = assay: Anti-diabesity activity in DIO C57BL/6 mouse assessed as reduction in body weight at 25 nmol/kg, sc administered every 2 days for 10 days; assay type: functional; conditions: time 10.0 day
Mus musculus [6] = assay: Anti-diabesity activity against db/db mouse assessed as increase in insulin sensitivity by measuring reduction in plasma insulin level at 25 nmol/kg, sc administered every 2 days for 12 weeks by ELISA; assay type: functional, organism-based
Mus musculus [7] = assay: Anti-diabesity activity against db/db mouse assessed as reduction in HbA1c level at 25 nmol/kg, sc administered every 2 days for 6 weeks followed by saline treatment for 6 weeks and measured during second 6 weeks; assay type: functional, organism-based
Mus musculus [8] = assay: Anti-diabesity activity against DIO C57BL/6 mouse assessed as reduction in triglycerides level in serum at 25 nmol/kg, sc administered every 2 days for 3 weeks; assay type: functional, organism-based; conditions: time 21.0 day
Mus musculus [9] = assay: Anti-diabesity activity against db/db mouse assessed as reduction in HbA1c level at 25 nmol/kg, sc administered every 2 days for 12 weeks; assay type: functional, organism-based
Mus musculus [10] = assay: Anti-diabesity activity against db/db mouse assessed as increase in pancreas mass at 25 nmol/kg, sc administered every 2 days for 12 weeks; assay type: functional, organism-based
Mus musculus [11] = assay: Anti-diabesity activity against db/db mouse assessed as reduction in HbA1c level at 25 nmol/kg, sc administered every 2 days for 6 weeks followed by saline treatment for 6 weeks and measured during first 6 weeks; assay type: functional, organism-based
Mus musculus [12] = assay: Anti-diabesity activity in DIO C57BL/6 mouse assessed as reduction in body weight at 100 nmol/kg, sc administered every 2 days for 10 days; assay type: functional; conditions: time 10.0 day
Mus musculus [13] = assay: Anti-diabesity activity against DIO C57BL/6 mouse assessed as reduction in cumulative food intake at 25 nmol/kg, sc administered every 2 days for 3 weeks; assay type: functional, organism-based; conditions: time 21.0 day
Mus musculus [14] = assay: Anti-diabesity activity against DIO C57BL/6 mouse assessed as reduction in fasted blood glucose level at 25 nmol/kg, sc administered every 2 days for 3 weeks; assay type: functional, organism-based; conditions: time 21.0 day
BRIN-BD11 = assay: Insulinotropic activity in rat BRIN-BD11 cells assessed as increase in insulin secretion incubated for 20 mins by radioimmunoassay; assay type: functional, cell-based; conditions: DDE = dose-dependent effect
Mus musculus [15] = assay: Anti-diabesity activity in DIO C57BL/6 mouse assessed as improvement in insulin sensitivity at 25 nmol/kg, sc administered every 2 days for 10 days by insulin tolerance test; assay type: functional, organism-based; conditions: time 10.0 day
Mus musculus [16] = assay: Anti-diabesity activity against DIO C57BL/6 mouse assessed as reduction in body weight at 25 nmol/kg, sc administered every 2 days for 3 weeks; assay type: functional; conditions: time 21.0 day
Mus musculus [17] = assay: Anti-diabesity activity against db/db mouse assessed as reduction in fasted blood glucose level at 25 nmol/kg, sc administered every 2 days for 3 weeks; assay type: functional, organism-based; conditions: time 21.0 day
Mus musculus [18] = assay: Anti-diabesity activity against db/db mouse assessed as improvement in glucose tolerance level at 25 nmol/kg, sc administered every 2 days for 6 weeks followed by saline treatment for 6 weeks and measured during second 6 weeks by OGTT; assay type: functional, organism-based
Mus musculus [19] = assay: Anti-diabesity activity against db/db mouse assessed as increase in islet number at 25 nmol/kg, sc administered every 2 days for 3 weeks by H and E staining based analysis; assay type: functional, organism-based; conditions: time 21.0 day
Mus musculus [20] = assay: Anti-diabesity activity against db/db mouse assessed as increase in IOD of insulin in pancreas at 25 nmol/kg, sc administered every 2 days for 12 weeks by immunohistochemistry; assay type: functional, organism-based
Mus musculus [21] = assay: Insulinotropic activity in db/db mouse assessed as elevation of plasma insulin level at 25 nmol/kg, ip administered 30 min before oral glucose administration and measured upto 60 mins by ELISA; assay type: functional, organism-based; conditions: time <= 90.0 min
Mus musculus [22] = assay: Anti-diabesity activity against db/db mouse assessed as HbA1c level at 25 nmol/kg, sc administered every 2 days for 3 weeks; assay type: functional, organism-based; conditions: time 21.0 day
Mus musculus [23] = assay: Anti-diabesity activity against db/db mouse assessed as reduction in body weight at 25 nmol/kg, sc administered every 2 days for 3 weeks; assay type: functional, organism-based; conditions: time 21.0 day
Mus musculus [24] = assay: Anti-diabesity activity in DIO C57BL/6 mouse assessed as reduction in body weight at 10 nmol/kg, sc administered every 2 days for 10 days; assay type: functional; conditions: time 10.0 day
Mus musculus [25] = assay: Anti-diabesity activity against db/db mouse assessed as increase in islet area at 25 nmol/kg, sc administered every 2 days for 3 weeks by H and E staining based analysis; assay type: functional, organism-based; conditions: time 21.0 day
Mus musculus [26] = assay: Hypoglycemic activity in db/db mouse assessed as reduction in glucose excursion at 25 nmol/kg, ip administered 30 min before oral glucose administration and measured upto 120 mins by OGTT; assay type: functional, organism-based
Mus musculus [27] = assay: Anti-diabesity activity against db/db mouse assessed as improvement in glucose tolerance level at 25 nmol/kg, sc administered every 2 days for 6 weeks followed by saline treatment for 6 weeks and measured during first 6 weeks by OGTT; assay type: functional, organism-based
Mus musculus [28] = assay: Anti-diabesity activity against db/db mouse assessed as reduction in fasting blood glucose level at 25 nmol/kg, sc administered every 2 days for 6 weeks followed by saline treatment for 6 weeks and measured during first 6 weeks; assay type: functional, organism-based
Mus musculus [29] = assay: Anti-diabesity activity against DIO C57BL/6 mouse assessed as decrease in fat mass at 25 nmol/kg, sc administered every 2 days for 3 weeks; assay type: functional, organism-based; conditions: time 21.0 day
Mus musculus [30] = assay: Anti-diabesity activity against db/db mouse assessed as reduction in cumulative food intake at 25 nmol/kg, sc administered every 2 days for 3 weeks; assay type: functional, organism-based; conditions: time 21.0 day
Mus musculus [31] = assay: Anti-diabesity activity against DIO C57BL/6 mouse assessed as reduction in cholesterol level in serum at 25 nmol/kg, sc administered every 2 days for 3 weeks; assay type: functional, organism-based; conditions: time 21.0 day
Mus musculus [32] = assay: Anti-diabesity activity against db/db mouse assessed as reduction in fasting blood glucose level at 25 nmol/kg, sc administered every 2 days for 6 weeks followed by saline treatment for 6 weeks and measured during second 6 weeks; assay type: functional, organism-based
Mus musculus [33] = assay: Hypoglycemic activity in db/db mouse assessed as improvement in glucose tolerance at 25 nmol/kg, ip administered 30 min before oral glucose administration and measured upto 120 mins by OGTT; assay type: functional, organism-based
Mus musculus [34] = assay: Anti-diabesity activity against db/db mouse assessed as enhanced islets insulin content at 25 nmol/kg, sc administered every 2 days for 3 weeks by immunohistochemistry staining; assay type: functional, organism-based; conditions: time 21.0 day
Mus musculus [35] = assay: Anti-diabesity activity against DIO C57BL/6 mouse assessed as improvement in glucose tolerance at 25 nmol/kg, sc administered every 2 days for 3 weeks by OGTT; assay type: functional, organism-based; conditions: time 21.0 day
Mus musculus [36] = assay: Anti-diabesity activity against high fat diet-induced DIO C57BL/6 mouse model assessed as reduction in fat mass accumulation at 25 nmol/kg, sc administered for 2 weeks and measured on day 15 by NMR analysis; assay type: functional, organism-based; conditions: time 15.0 day
Mus musculus [37] = assay: Hypoglycemic activity in ICR mouse assessed as improvement in glucose tolerance at 25 nmol/kg, ip administered 30 min before oral glucose administration and measured upto 120 mins by OGTT; assay type: functional, organism-based
Mus musculus [38] = assay: Anti-diabesity activity against high fat diet-induced DIO C57BL/6 mouse model assessed as decrease in body weight at 25 nmol/kg, sc administered for 2 weeks; assay type: functional; conditions: C57BL/6, 336 h, time 14 day
Mus musculus [39] = assay: Anorectic activity in ICR mouse assessed as decrease in food intake at 25 nmol/kg, ip and measured after 9 hrs; assay type: functional, organism-based
Mus musculus [40] = assay: Anti-diabesity activity against high fat diet-induced DIO C57BL/6 mouse model assessed as reduction in food intake at 25 nmol/kg, sc administered for 2 weeks; assay type: functional, organism-based; conditions: time 14.0 day
Mus musculus [41] = assay: Anorectic activity in ICR mouse assessed as decrease in food intake at 25 nmol/kg, ip and measured after 24 hrs; assay type: functional, organism-based

Compound: SEMAGLUTIDE
- Activity (Mus musculus [1]): Active
- Activity (Mus musculus [2]): Active
- Activity (Mus musculus [3]): Active
- Activity (Mus musculus [4]): Active
- inhibition (Mus musculus [5]): 12.5%
- Activity (Mus musculus [6]): Active
- Activity (Mus musculus [7]): Active
- Activity (Mus musculus [8]): Active
- Activity (Mus musculus [9]): Active
- Activity (Mus musculus [10]): Active
- Activity (Mus musculus [11]): Active
- inhibition (Mus musculus [12]): 17.3%
- Activity (Mus musculus [13]): Active
- Activity (Mus musculus [14]): Active
- Activity (BRIN-BD11): Dde
- Activity (Mus musculus [15]): Active
- inhibition (Mus musculus [16]): 14.9%
- Activity (Mus musculus [17]): Active
- Activity (Mus musculus [18]): Active
- Activity (Mus musculus [19]): Active
- Activity (Mus musculus [20]): Active
- Activity (Mus musculus [21]): Active
- Activity (Mus musculus [22]): Active
- Activity (Mus musculus [23]): Active
- inhibition (Mus musculus [24]): 8.2%
- Activity (Mus musculus [25]): Active
- Activity (Mus musculus [26]): Active
- Activity (Mus musculus [27]): Active
- Activity (Mus musculus [28]): Active
- Activity (Mus musculus [29]): Active
- Activity (Mus musculus [30]): Active
- Activity (Mus musculus [31]): Active
- Activity (Mus musculus [32]): Active
- Activity (Mus musculus [33]): Active
- Activity (Mus musculus [34]): Active
- Activity (Mus musculus [35]): Active

Compound: CCCCCCCCCCCCCCCC(=O)N[C@@H](CCC(=O)NCCCC[C@H](NC(=O)[C@H](C)NC(=O)[C@H](C)NC(=O)[C@H](CCC(=O)O)NC(=O)[C@H](CCC(=O)O)NC(=O)[C@H](CCC(=O)O)NC(=O)[C@H](CC(C)C)NC(=O)[C@@H](NC(=O)[C@H](CCC(=O)O)NC(=O)[C@@H](NC(=O)[C@@H](NC(=O)[C@H](CC(=O)O)NC(=O)[C@H](CC(N)=O)NC(=O)[C@@H](NC(=O)[C@H](Cc1ccc(O)cc1)NC(=O)[C@@H](NC(=O)CNC(=O)[C@H](CCC(=O)O)NC(=O)C(C)(C)NC(=O)[C@@H](N)Cc1cnc[nH]1)[C@@H](C)O)[C@@H](C)O)C(C)C)[C@@H](C)O)[C@@H](C)O)C(=O)N[C@@H](CCC(=O)O)C(=O)N[C@@H](Cc1ccccc1)C(=O)N[C@H](C(=O)N[C@@H](CCC(=O)O)C(=O)N[C@@H](Cc1c[nH]c2ccccc12)C(=O)N[C@@H](CC(C)C)C(=O)N[C@H](C(=O)N[C@@H](CCCCN)C(=O)NCC(=O)N[C@@H](CCCCN)C(N)=O)[C@@H](C)CC)[C@@H](C)CC)C(=O)O (H-H[Aib]EGTYTNDVTETLEEEAAK([γGlu-Palmitoyl])EFIEWLIKGK-NH2)
- Activity (Mus musculus [36]): Active
- Activity (Mus musculus [37]): Active
- inhibition in vivo at 0.025 µmol/kg (Mus musculus [38]): 12.1%
- Activity (Mus musculus [39]): Active
- Activity (Mus musculus [40]): Active
- Activity (Mus musculus [41]): Active

Compound: CCCCCCCCCCCCCCCC(=O)N[C@@H](CCC(=O)NCCCC[C@H](NC(=O)[C@H](C)NC(=O)[C@H](C)NC(=O)[C@H](CCC(N)=O)NC(=O)CNC(=O)[C@H](CCC(=O)O)NC(=O)[C@H](CC(C)C)NC(=O)[C@H](Cc1ccc(O)cc1)NC(=O)[C@H](CO)NC(=O)[C@H](CO)NC(=O)[C@@H](NC(=O)[C@H](CC(=O)O)NC(=O)[C@H](CO)NC(=O)[C@@H](NC(=O)[C@H](Cc1ccccc1)NC(=O)[C@@H](NC(=O)CNC(=O)[C@H](CCC(=O)O)NC(=O)[C@H](C)NC(=O)[C@@H](N)Cc1cnc[nH]1)[C@@H](C)O)[C@@H](C)O)C(C)C)C(=O)N[C@@H](CCC(=O)O)C(=O)N[C@@H](Cc1ccccc1)C(=O)N[C@H](C(=O)N[C@@H](C)C(=O)N[C@@H](Cc1c[nH]c2ccccc12)C(=O)N[C@@H](CC(C)C)C(=O)N[C@H](C(=O)N[C@@H](CCCNC(=N)N)C(=O)NCC(=O)N[C@@H](CCCNC(=N)N)C(=O)NCC(=O)O)C(C)C)[C@@H](C)CC)C(=O)O [LIRAGLUTIDE]
- inhibition in vivo at 0.025 µmol/kg (Mus musculus [38]): 9.8%
